# Results: patent US8937039B2, “Peptide-based peroxidase inhibitors and methods of using same” (The Medical College of Wisconsin, Inc., priority 2009, dated 2015)
# Residues, ends and D or L forms follow the SMILES beside them.
# Experiments:
# [1] = tested on: OVA-sensitized C57BL/6J mice; assay: OVA-sensitized murine model of asthma (lung histology); format: in vivo, mouse; settings: KYC 0.3 mg/kg every other day, 5 treatments
# Text: Murine Model of Experimentally-Induced Asthma. C57BL/6J mice (12-14 wk old) from Jackson Laboratory (Bar Harbor, Me.) were housed in sterile autoclavable microisolation cages and fed standard laboratory mouse chow and water ad libitum. All protocols were approved by the Institutional Animal Care and Use Committee (IACUC) of the Medical College of Wisconsin.
# C57BL/6J mice were divided into three groups; a control group (Control), an ovalbumin (OVA)-sensitized group and an OVA-sensitized group treated with KYC. OVA sensitization was achieved using a modification of a protocol previously described by de Siqueira et al^15 (FIG. 1). […] When mice inhale aerosolized OVA, robust allergic responses are routinely observed.
# Briefly, on day one, mice were anesthetized (halothane; Halocarbon Laboratories, River Edge, N.J.) and a heat-denatured OVA fragment (˜80 mg, 5×2×2 mm) was implanted subcutaneously in the dorsal aspect of the neck. The incision was closed with stainless steel clips and the mouse was allowed to recover. Implantation of the heat-denatured OVA fragment initiates sensitization. On day fifteen, the implanted mice were exposed to aerosolized OVA (6% in PBS) for 30 minutes every other day for ten days. Twenty-four hours after the last OVA challenge, the mice were deeply anesthetized (halothane), sacrificed by exsanguination and the lungs removed for analysis. […]
# [2] = Solubility in aqueous buffers; format: physicochemical
# C57BL/6J mice = assay: Pulmonary retention of Q-dot labeled EMPs (acute lung injury); format: in vivo, mouse; settings: pretreatment and treatment with KYC
# Protocol: KYC Inhibits Acute Lung Injury. Inflammation and sepsis induce the release of endothelial cell microparticles (EMPs). Increased production of EMPs is hypothesized to play a causal role in the mechanisms mediating acute lung injury (ALI). To test this hypothesis, the inventors incubated human umbilical vein endothelial cells with PAI-1, which is well-recognized for inducing endothelial cells to generate EMPs. The EMPs were collected by ultracentrifugation, resuspended in physiological saline solution and then labeled with Q-dots. The Q-dot labeled EMPs were counted and then injected into C57BL/6J mice to achieve a final concentration of 100,000 EMPs/mL of blood. Mice were pretreated with phosphate buffered saline (FIG. 6) or KYC and then were injected with Q-dot labeled EMPs alone or Q-dot labeled EMPs plus KYC (FIG. 6).
# SCD mice = assay: Vasodilatation of pressurized facialis arteries from SCD mice treated in vivo; parameters: species or system mouse; settings: KYC, three weeks
# Protocol: Murine Model of Sickle Cell Disease. Mice treated with KYC in vivo. SCD mice were treated with KYC (intraperitoneal injection: IP 0.3 mg/kg/d) or with PBS (IP 100 μL) for 3 weeks. Anesthesia was induced with Ketamine (100 mg/kg)+Xylazine (10 mg/kg) cocktail (ip) and then sacrificed by exsanguination. Facialis arteries were atraumatically dissected and maintained in cooled MOPS solution (in mM: NaCl 145, KCL 4.7, CaCl2 2, NaH2PO4 1.2, MgSO4, 1.2, pyruvate 2, EDTA 0.02, MOPS 3.0, and glucose 5.0, at pH 7.4). Vessels were then submerged in a MOPS bath, mounted on MOPS-containing glass capillary tubes, internally pressurized (60 mmHg), and warmed to 37° C. Internal vascular diameters were measured with a calibrated video-microscope (Boeckeler). After the vessel was allowed to acclimate to 37° C. (approximately 30 min), the diameter was measured and recorded (Dmax). […] A control dose-response curve using acetylcholine (ACh, 10^−7-10^−4 M) was performed and vessel diameter recorded. […] Vasodilation to papaverine ([…]) was determined after all treatments to ensure smooth muscle viability. Vasodilation was calculated as a percent of maximal vessel diameter change.
# Vasodilatation. […] Physiological responses to increasing concentrations of acetylcholine (ACh) were determined by videomicroscopy as previously described.
compound,measurement,setting,value
"CC(=O)N[C@@H](CCCCN)C(=O)N[C@@H](Cc1ccc(O)cc1)C(=O)N[C@@H](CS)C(N)=O [KYC, N-acetyl Lysyltyrosylcysteine Amide] (Ac-Lys-Tyr-Cys-NH2)",Eosinophil infiltration in the lungs (in words),[1]; H&E,markedly reduce eosinophil infiltration to essentially control levels
same,Collagen deposition in the lungs (in words),[1]; trichrome,markedly reduces collagen deposition to control levels
same,Solubility in water / aqueous buffers (in words),[2],highly water soluble
same,Pulmonary retention of Q-dot labeled EMPs (in words),C57BL/6J mice,dramatically decreases
same,Endothelium- and eNOS-dependent vasodilatation (in words),SCD mice,dramatically increases
